Laboratory results reported in patent US20250207124A1, “COMPOSITIONS AND METHODS FOR EXPRESSING SYNTHETIC GENETIC ELEMENTS ACROSS DIVERSE MICROORGANISMS” (priority 2022, published 2025).

System: E. coli in vitro translation reaction
Test: PURExpress in vitro transcription/translation of a GFP reporter
Settings: read-out: half-maximal inhibition (IC50) of translation of a GFP reporter; PURExpress (NEB) protein synthesis system; DNA encoding eGFP; endpoint fluorescence after 4 hours
Experimental: The PureExpress kit (NEB) was used in accordance with manufacture's protocol to assay for the in-vitro production of GFP. For each sample a 25 uL reaction was performed containing 100 ng DNA or 500 ng RNA template encoding GFP (transcription in this kit is via T7 RNA Polymerase), plus indicated amounts of purified compound dissolved in H2O. Reactions were loaded into a white 384 well plate and production of fluorescent GFP protein was monitored with a Synergy Ht Plate Reader (Bio-tek). Fluorescence reached an endpoint at 4 hours. To produce DNA template, a PCR product of the pT7-GFP gene was amplified (Kapa HiFi Polymerase) and purified by gel electrophoresis followed by gel purification (Qiagen). To produce RNA template, the DNA PCR product was transcribed with the HiScribe T7 High Yield RNA Synthesis kit (NEB), treated with DNasel, and purified by the Monarch RNA Purification Kit (NEB). RNA was quantified by Qubit.
To quantify IC50 values for translation inhibition activity (FIG. 14A), raw fluorescence values were linearly converted to percent activity. […] Graphpad Prism was used to plot a hyperbolic non-linear regression.

## CC[C@H]1OC(=O)[C@H](C)[C@@H](O[C@H]2C[C@@](C)(OC)[C@@H](O)[C@H](C)O2)[C@H](C)[C@@H](O[C@@H]2O[C@H](C)C[C@H](N(C)C)[C@H]2O)[C@](C)(O)C[C@@H](C)C(=O)[C@H](C)[C@@H](O)[C@]1(C)O [erythromycin]
  IC50: 2000 nM
